# Test system: R. reniformis
# Test: Greenhouse trial with treated cotton seeds in autoclaved soil
# Assay type: in vivo, Rotlyenchulus reniformis
# Conditions: seed treatment 500 g ai/100 kg
# Source text: Anti-nematodal activity is understood as meaning any activity useful in controlling or killing nematodes, such as reducing nematode egg hatching or paralyzing juveniles of nematodes. Testing for anti-nematodal activity is done both in-vitro and in-vivo through laboratory and greenhouse procedures. In-vitro testing can involve testing eggs and/or juvenile nematodes in selective media in small 96-well plates and measurements done by microscopic evaluations. Proper control treatments would be combined to monitor and compare activity. Under greenhouse studoes soil was autoclaved using two 90 minute cycles at 130° C. at […] pressure with a 24 hour cool down between cycles to remove any natural competition for the microflora. The vermiform stages were extracted from the soil by the modified gravity screening and sucrose centrifugation-flotation. Eggs stages were extracted from cotton roots by shaking the root system in a 1% NaOCl solution for four minutes at 120 rpm. The nematode suspension was collected and rinsed with water through a 25 μm sieve. Females in roots were stained with acid fuschin to facilitate enumeration of the females invading the root. Variables measured included plant height, shoot and root weights, females and eggs per gram of root, and the number of vermiform life stages in soil. […]
# Rotlyenchulus reniformis vermiform life stages were extracted from the soil by modified gravity screening and sucrose centrifugation-flotation. […] Vermiform life stages and eggs were counted under an inverted TS 100 Nikon microscope at 40× magnification. Females embedded in the root systems were quantified at 5× magnification utilizing the Nikon SMZ800 […] microscope. Variables measured were plant height, shoot and root weight, females and eggs per gram of root, and the number of vermiform life stages in 500 cm^3 of soil. […] Data were analyzed in SAS 9.1 (SAS Institute Inc.). The distributional assumption was evaluated with the student panel graphs of the GLIMMIX procedure. […]
smiles,measurement,value
O=[N+]([O-])NC1=NCCN1Cc1ccc(Cl)nc1 [imidacloprid],effect on R. reniformis life stages,did not have any effect
same,effect on cotton plant growth,did not have any effect
same,nematicidal activity,did not show any nematicidal activity

# Reference: patent publication US20150282488A1, “COMPOSITIONS AND METHODS FOR CONTROLLING PLANT-PARASITE NEMATODE” (BAYER CROPSCIENCE LP, priority 2012, published 2015)
